Experimental data: patent US11248010B2, “Compounds, compositions, and methods for modulating CFTR” (Proteostasis Therapeutics, Inc., priority 2016, dated 2022)

Target: T1, ΔF508-CFTR (Homo sapiens, UniProt P13569, DEL508-508)
T1 construct: primary lung epithelial cells (hBEs) homozygous for the Cystic Fibrosis-causing ΔF508 mutation are differentiated; endogenous in cells; host or cells: primary human bronchial epithelial cells (hBEs) homozygous for ΔF508, differentiated at an air-liquid interface
Test: Ussing measurements (CFTR activity assay)
Assay type: cell-based
Settings: compound at 1 uM; activity relative to a corrector (VX-809 (3 uM)); primary lung epithelial cells (hBEs) homozygous for ΔF508; CFTRinh-172-inhibitable short-circuit current
Procedure: As discussed above, Ussing measurements are used to measure CFTR activity. In this method, primary lung epithelial cells (hBEs) homozygous for the Cystic Fibrosis-causing ΔF508 mutation are differentiated for a minimum of 4 weeks in an air-liquid interface on SnapWell filter plates prior to the Ussing measurements. Cells are apically mucus-washed for 30 minutes prior to treatment with compounds. The basolateral media is removed and replaced with media containing the compound of interest diluted to its final concentration from DMSO stocks. Treated cells are incubated at 37° C. and 5% CO2 for 24 hours. At the end of the treatment period, the cells on filters are transferred to the Ussing chamber and equilibrated for 30 minutes. The short-circuit current is measured in voltage clamp-mode (Vhold=0 mV), and the entire assay is conducted at a temperature of 36° C.-36.5° C. Once the voltages are stabilized, the chambers are clamped, and data is recorded by pulse readings every 5 seconds. Following baseline current stabilization, the following additions can be applied and the changes in current and resistance of the cells can be monitored:
1. Benzamil to the apical chamber to inhibit ENaC sodium channel.
2. Forskolin to both chambers to activate ΔF508-CFTR by phosphorylation.
3. VX-770 to the apical chamber to potentiate ΔF508-CFTR channel opening.
4. CFTRinh-172 to the apical chamber to inhibit ΔF508-CFTR Cl— conductance.
The inhibitable current (that current that is blocked by CFTRinh-172) is measured as the specific activity of the ΔF508-CFTR channel, and increases in response to compound in this activity over that observed in vehicle-treated samples are identified as the correction of ΔF508-CFTR function imparted by the compound tested.
(+ indicates activity <200% of a corrector (VX-809 (3 uM)) with compound at 1 uM; ++ indicates activity >200% of a corrector (VX-809 (3 uM)) with compound at 1 uM.

T1 sequence (P13569 with tags, fused parts or gaps DEL508-508): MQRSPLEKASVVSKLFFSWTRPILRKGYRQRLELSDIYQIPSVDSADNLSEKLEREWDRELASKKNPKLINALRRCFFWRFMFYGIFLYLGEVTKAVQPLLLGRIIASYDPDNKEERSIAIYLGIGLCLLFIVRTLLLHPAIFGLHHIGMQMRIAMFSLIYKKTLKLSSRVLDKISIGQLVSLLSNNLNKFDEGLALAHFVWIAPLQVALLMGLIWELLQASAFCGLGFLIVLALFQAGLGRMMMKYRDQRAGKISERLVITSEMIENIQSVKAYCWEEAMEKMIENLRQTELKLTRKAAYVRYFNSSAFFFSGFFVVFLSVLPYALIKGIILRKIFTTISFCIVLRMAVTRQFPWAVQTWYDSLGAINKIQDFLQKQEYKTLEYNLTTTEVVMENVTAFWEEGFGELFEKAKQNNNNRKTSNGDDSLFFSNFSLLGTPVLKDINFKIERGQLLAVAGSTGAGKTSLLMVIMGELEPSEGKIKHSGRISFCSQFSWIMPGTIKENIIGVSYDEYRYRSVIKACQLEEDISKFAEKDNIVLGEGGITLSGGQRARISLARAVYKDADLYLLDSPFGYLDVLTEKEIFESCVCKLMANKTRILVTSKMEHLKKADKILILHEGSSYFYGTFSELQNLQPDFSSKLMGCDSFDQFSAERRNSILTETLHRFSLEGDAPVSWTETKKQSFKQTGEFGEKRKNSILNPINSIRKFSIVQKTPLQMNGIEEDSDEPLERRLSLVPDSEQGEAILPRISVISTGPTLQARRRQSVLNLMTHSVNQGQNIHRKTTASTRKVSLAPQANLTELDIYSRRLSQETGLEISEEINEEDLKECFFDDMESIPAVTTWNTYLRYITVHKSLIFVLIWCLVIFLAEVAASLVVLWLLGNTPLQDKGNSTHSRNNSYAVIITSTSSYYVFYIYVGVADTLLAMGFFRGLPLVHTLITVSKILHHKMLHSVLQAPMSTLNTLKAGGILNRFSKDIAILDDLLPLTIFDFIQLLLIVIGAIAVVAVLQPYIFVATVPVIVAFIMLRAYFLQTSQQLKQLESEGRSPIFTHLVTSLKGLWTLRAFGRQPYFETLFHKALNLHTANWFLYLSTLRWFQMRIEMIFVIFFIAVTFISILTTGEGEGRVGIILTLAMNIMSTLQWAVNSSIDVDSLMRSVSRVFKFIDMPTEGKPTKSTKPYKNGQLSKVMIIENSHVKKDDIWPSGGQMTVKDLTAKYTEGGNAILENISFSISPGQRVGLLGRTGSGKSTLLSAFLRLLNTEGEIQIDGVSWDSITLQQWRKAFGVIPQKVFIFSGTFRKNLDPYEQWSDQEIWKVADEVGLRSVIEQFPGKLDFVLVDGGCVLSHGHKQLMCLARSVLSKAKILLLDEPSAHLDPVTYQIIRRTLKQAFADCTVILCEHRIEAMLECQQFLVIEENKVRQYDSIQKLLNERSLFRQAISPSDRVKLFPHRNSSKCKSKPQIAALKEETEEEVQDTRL

SMILES	Activity
CC(C)(C)c1cc([Si](C)(C)C)c(O)cc1NC(=O)c1c[nH]c2ccccc2c1=O [Compound 1, N-[2-tert-Butyl-5-hydroxy-4-(trimethylsilyl)phenyl]-4-oxo-1,4-dihydroquinoline-3-carboxamide]	++ (activity >200% of a corrector (VX-809 (3 uM)) with compound at 1 uM)
CC[Si](C)(C)c1cc(C(C)(C)C)c(NC(=O)c2c[nH]c3ccccc3c2=O)cc1O [Compound 2, N-[2-tert-Butyl-4-(ethyldimethylsilyl)-5-hydroxyphenyl]-4-oxo-1,4-dihydroquinoline-3-carboxamide]	++ (activity >200% of a corrector (VX-809 (3 uM)) with compound at 1 uM)
CC[Si](C)(CC)c1cc(C(C)(C)C)c(NC(=O)c2c[nH]c3ccccc3c2=O)cc1O [Compound 3, N-[2-tert-Butyl-4-[diethyl(methyl)silyl]-5-hydroxyphenyl]-4-oxo-1,4-dihydroquinoline-3-carboxamide]	++ (activity >200% of a corrector (VX-809 (3 uM)) with compound at 1 uM)
CC[Si](CC)(CC)c1cc(C(C)(C)C)c(NC(=O)c2c[nH]c3ccccc3c2=O)cc1O [Compound 4, N-(2-(tert-Butyl)-5-hydroxy-4-(triethylsilyl)phenyl)-4-oxo-1,4-dihydroquinoline-3-carboxamide]	+ (activity <200% of a corrector (VX-809 (3 uM)) with compound at 1 uM)
CC(C)(C)c1cc([Si](C)(C)C(C)(C)C)c(O)cc1NC(=O)c1c[nH]c2ccccc2c1=O [Compound 5, N-(2-tert-Butyl-4-(tert-butyldimethylsilyl)-5-hydroxyphenyl)-4-oxo-1,4-dihydroquinoline-3-carboxamide]	++ (activity >200% of a corrector (VX-809 (3 uM)) with compound at 1 uM)
CC(C)[Si](C)(C)c1cc(C(C)(C)C)c(NC(=O)c2c[nH]c3ccccc3c2=O)cc1O [Compound 6, N-[2-tert-Butyl-4-[dimethyl(propan-2-yl)silyl]-5-hydroxyphenyl]-4-oxo-1,4-dihydroquinoline-3-carboxamide]	++ (activity >200% of a corrector (VX-809 (3 uM)) with compound at 1 uM)
CC(C)(C)c1cc([Si](C)(C)c2ccccc2)c(O)cc1NC(=O)c1c[nH]c2ccccc2c1=O [Compound 7, N-(2-(tert-Butyl)-4-(dimethyl(phenyl)silyl)-5-hydroxyphenyl)-4-oxo-1,4-dihydroquinoline-3-carboxamide]	++ (activity >200% of a corrector (VX-809 (3 uM)) with compound at 1 uM)
CC(C)(C)c1cc([Si](C)(C)C)c(NC(=O)c2c[nH]c3ccccc3c2=O)cc1O [Compound 8, N-[4-tert-Butyl-5-hydroxy-2-(trimethylsilyl)phenyl]-4-oxo-1,4-dihydroquinoline-3-carboxamide]	++ (activity >200% of a corrector (VX-809 (3 uM)) with compound at 1 uM)
CC(C)(C)c1cc([Si](C)(C)C(C)(C)C)c(NC(=O)c2c[nH]c3ccccc3c2=O)cc1O [Compound 10, N-(4-(tert-Butyl)-2-(tert-butyldimethylsilyl)-5-hydroxyphenyl)-4-oxo-1,4-dihydroquinoline-3-carboxamide]	++ (activity >200% of a corrector (VX-809 (3 uM)) with compound at 1 uM)
C[Si](C)(C)c1cc([Si](C)(C)C)c(NC(=O)c2c[nH]c3ccccc3c2=O)cc1O [Compound 11, N-(5-Hydroxy-2,4-bis(trimethylsilyl)phenyl)-4-oxo-1,4-dihydroquinoline-3-carboxamide]	++ (activity >200% of a corrector (VX-809 (3 uM)) with compound at 1 uM)
[2H]C([2H])([2H])[Si](c1cc(C(C)(C)C)c(NC(=O)c2c[nH]c3ccccc3c2=O)cc1O)(C([2H])([2H])[2H])C([2H])([2H])[2H] [Compound 12, N-(2-(tert-Butyl)-5-hydroxy-4-(tris(methyl-d3)silyl)phenyl)-4-oxo-1,4-dihydroquinoline-3-carboxamide]	++ (activity >200% of a corrector (VX-809 (3 uM)) with compound at 1 uM)
[2H]C([2H])([2H])[Si](c1cc([Si](C([2H])([2H])[2H])(C([2H])([2H])[2H])C([2H])([2H])[2H])c(NC(=O)c2c[nH]c3ccccc3c2=O)cc1O)(C([2H])([2H])[2H])C([2H])([2H])[2H] [Compound 13, N-(5-Hydroxy-2,4-bis(tris(methyl-d3)silyl)phenyl)-4-oxo-1,4-dihydroquinoline-3-carboxamide]	++ (activity >200% of a corrector (VX-809 (3 uM)) with compound at 1 uM)
C[Si](C)(C)c1ccc(NC(=O)c2c[nH]c3ccccc3c2=O)cc1O [Compound 17, N-(3-Hydroxy-4-(trimethylsilyl)phenyl)-4-oxo-1,4-dihydroquinoline-3-carboxamide]	++ (activity >200% of a corrector (VX-809 (3 uM)) with compound at 1 uM)
C[Si](C)(C)c1cc(F)c(NC(=O)c2c[nH]c3ccccc3c2=O)cc1O [Compound 18, N-(2-Fluoro-5-hydroxy-4-(trimethylsilyl)phenyl)-4-oxo-1,4-dihydroquinoline-3-carboxamide]	++ (activity >200% of a corrector (VX-809 (3 uM)) with compound at 1 uM)
C[Si](C)(C)c1cc(C(F)(F)F)c(NC(=O)c2c[nH]c3ccccc3c2=O)cc1O [Compound 19, N-(5-Hydroxy-2-(trifluoromethyl)-4-(trimethylsilyl)phenyl)-4-oxo-1,4-dihydroquinoline-3-carboxamide]	++ (activity >200% of a corrector (VX-809 (3 uM)) with compound at 1 uM)
